Where two headings read alike, the source gives them in different places.
Key:
[1] = system: renal carcinoma cells (786-O); experiment: In vitro potency (CellTiter-Glo, 96 h), 786-O; type: cell-based; details: Homo sapiens, 786-0, 96 h
Outline: (§1)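 IC50 (ng/mL or nmol/L) derived from CellTiter-Glo luminescence after 96 h exposure at 37 °C to serial dilutions of ADC or CPT free drug. Log-phase cells had been plated 24 h beforehand in RPMI 1640 containing 20% FBS.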

[2] = system: pancreatic cancer cells (BxPC3); experiment: In vitro potency (CellTiter-Glo, 96 h), BxPC3; type: cell-based; details: Homo sapiens, BXPC-3, 96 h
Outline: as §1

[3] = system: Hodgkin's lymphoma cells (L540cy); experiment: In vitro potency (CellTiter-Glo, 96 h), L540cy; type: cell-based
Outline: as §1

[4] = system: acute myeloid leukemia cells (MOLM-13); experiment: In vitro potency (CellTiter-Glo, 96 h), MOLM-13; type: cell-based; details: Homo sapiens, MOLM-13, 96 h
Outline: as §1

[5] = system: B-lymphocyte cancer cells (SU-DHL4); experiment: In vitro potency (CellTiter-Glo, 96 h), SU-DHL-4; type: cell-based; details: Homo sapiens, SU-DHL-4, 96 h
Outline: (§2)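 Four-day continuous exposure at 37 °C to serially diluted ADC or free camptothecin payload, in RPMI 1640 with 20% FBS after 24 h pre-plating. Luminescent signal gave IC50 (ng/mL; nmol/L).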

[6] = system: multiple myeloma cells (MM.1R); experiment: In vitro potency (CellTiter-Glo, 96 h), MM.1R; type: cell-based; details: camptothecin drugs, Table 13, CellTiter-Glo after 96 h exposure
Protocol: (§3) In vitro potency was assessed on multiple cancer cell lines. All cell lines were authenticated by STR profiling at IDEXX Bioresearch and cultured for no more than 2 months after resuscitation. Cells cultured in log-phase growth were seeded for 24 hours in 96-well plates containing […] RPMI 1640 supplemented with 20% FBS. Following addition of test articles, cells were incubated with test articles for 4 days at 37 0° C. After 96 hours, growth inhibition was assessed by CellTiterGlo® (Promega, Madison, WI) and luminescence was measured on a plate reader.
(§4) Cell viability was determined by CellTiter-Glo staining after 96 h exposure to the compound. ND=Not Determined. The cancer cell lines tested are renal carcinoma cells (786-0), melanoma cells (A2058), pancreatic cancer cells (BxPC3), non-small-cell lung cancer cells (Calu1), anaplastic large cell lymphoma cells (DEL, DELBVR, Karpas299), Hodgkin's lymphoma cells (L540cy), (Ls 174T), breast cancer cells (MDA-MB-231), acute myeloid leukemia cells (MOLM-13), B-lymphocyte cancer cells (SU-DHL4), multiple myeloma cells (MM.1R), (U266), and melanoma cells (SK-MEL-5).
as §3, with “FBS. Serial dilutions of antibody-drug conjugates in cell culture media were prepared at 4× working concentrations, and 50 μL of each dilution was added to the 96-well plates.” for “FBS.”, “37°” for “37 0°”
(§5) In vitro potency was assessed on multiple cancer cell lines. […] After 96 hours, growth inhibition was assessed by CellTiterGlo® (Promega, Madison, WI) and luminescence was measured on a plate reader.

U266 cells = experiment: In vitro potency (CellTiter-Glo, 96 h), U266; type: cell-based; details: Homo sapiens, U-266; camptothecin drugs, Table 13; CellTiter-Glo after 96 h exposure
Protocol: as §3, §4
as §3, with “FBS. Serial dilutions of antibody-drug conjugates in cell culture media were prepared at 4× working concentrations, and 50 μL of each dilution was added to the 96-well plates.” for “FBS.”, “37°” for “37 0°”
as §5

[7] = system: melanoma cells (SK-MEL-5); experiment: In vitro potency (CellTiter-Glo, 96 h), SK-MEL-5; type: cell-based; details: Homo sapiens, camptothecin drugs, Table 13, CellTiter-Glo after 96 h exposure
Protocol: as §3, §4
as §3, with “FBS. Serial dilutions of antibody-drug conjugates in cell culture media were prepared at 4× working concentrations, and 50 μL of each dilution was added to the 96-well plates.” for “FBS.”, “37°” for “37 0°”
as §5

[8] = system: h00-37, non-binding control antibody h00 conjugated with mp-val-cit-PABC-MMAE (compound 37)
[9] = system: h00-5, non-binding control antibody h00 conjugated with mp-D-Leu-Ala-Glu-PABC-MMAE (Drug Linker compound 5)
[10] = system: h00-7, non-binding control antibody h00 conjugated with mp-Leu-Ala-Glu-PABC-MMAE (Drug Linker compound 7)
[11] = system: HPAFII cell line (Ag1 upregulated); experiment: In vitro cytotoxicity of Ag1 ADCs, HPAFII cells; type: cell-based; details: in words, Tables 5a and 5b
Protocol: In vitro cytotoxicity. The cytotoxicity of a tripeptide-based Antibody Drug Conjugate was measured by a cell proliferation assay employing the protocol described in Promega Corp. Technical Bulletin TB288; and Mendoza et al., 2002, Cancer Res. 62:5485-5488), the methods of which are specifically incorporated by reference herein. Briefly, an aliquot of 40 μl of cell culture containing about 400 cells in medium is deposited in each well of a 384-well, opaque-walled plate. A 10 μL aliquot of free drug or Ligand-Drug Conjugate is added to the experimental wells and incubated for 96 h and are then equilibrated to room temperature for approximately 30 minutes whereupon a volume of CellTiter-Glo™ reagent equal to the volume of cell culture medium present in each well is added. The contents are mixed for 2 minutes on an orbital shaker to induce cell lysis and the plate is incubated at room temperature for 10 minutes to stabilize the luminescence signal for recordation.
The italicized values in Tables 5, 5a, and 5b indicate the percentage of cells remaining after 96 hr incubation at the maximum concentration of drug added. For convenience the numbering for the library members of Tables 5 and 5A are retained for the corresponding Drug linker compounds that are incorporated into the ADC of Tables 5, 5a, and 5b.

neutrophil elastase = biological target: T1, neutrophil elastase (Homo sapiens, UniProt P08246); experiment: Neutrophil elastase assay of ADCs; type: biochemical; details: 8-load ADC, 37 C, 3 h, pH 7.5, FIG. 6A
T1 sequence (P08246 30-267): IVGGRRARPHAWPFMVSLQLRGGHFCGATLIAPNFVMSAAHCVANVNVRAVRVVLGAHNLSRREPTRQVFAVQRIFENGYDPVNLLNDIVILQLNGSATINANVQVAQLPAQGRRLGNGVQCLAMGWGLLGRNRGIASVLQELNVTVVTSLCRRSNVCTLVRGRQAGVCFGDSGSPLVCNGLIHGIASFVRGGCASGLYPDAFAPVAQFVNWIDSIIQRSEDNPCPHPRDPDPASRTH
Protocol: To a mixture of 8-load ADC (5 ug), buffer (100 mM tris, 75 mM NaCl, pH 7.5; final concentration), and neutrophil elastase (100 ng) was added water to 20 uL. The reaction was incubated at 37 C for 3 h and then immediately analyzed by a QToF mass spectrometer.

[12] = system: non-small-cell lung cancer cells (Calu1); experiment: In vitro potency (CellTiter-Glo, 96 h), Calu1; type: cell-based; details: Homo sapiens, Calu-1, 96 h, read-out: Calu1 IC50
Outline: as §1

melanoma cells (A2058) = experiment: In vitro potency (CellTiter-Glo, 96 h), A2058; type: cell-based; details: Homo sapiens, A2058, 96 h, read-out: A2058 IC50
Outline: as §1

[13] = system: anaplastic large cell lymphoma cells (DEL); experiment: In vitro potency (CellTiter-Glo, 96 h), DEL; type: cell-based; details: read-out: DEL IC50, Table 28, CPT free drugs, anaplastic large cell lymphoma cells DEL, CellTiter-Glo
Outline: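 Growth inhibition after 96 h at 37 °C with test article, measured by luminescence; cells in RPMI 1640, 20% FBS.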

[14] = system: anaplastic large cell lymphoma cells (DELBVR); experiment: In vitro potency (CellTiter-Glo, 96 h), DELBVR; type: cell-based; details: read-out: DELBVR IC50, Table 28, CPT free drugs, anaplastic large cell lymphoma cells DELBVR, CellTiter-Glo
Outline: as §1

[15] = system: anaplastic large cell lymphoma cells (Karpas299); experiment: In vitro potency (CellTiter-Glo, 96 h), Karpas299; type: cell-based; details: Homo sapiens, KARPAS-299, 96 h, read-out: Karpas299 IC50, Table 28; CPT free drugs; anaplastic large cell lymphoma cells Karpas299; 96 h, CellTiter-Glo
Outline: as §1

Ls174T cells = experiment: In vitro potency (CellTiter-Glo, 96 h), Ls174T; type: cell-based; details: Homo sapiens, LS174T, 96 h, read-out: Ls174T IC50, Table 28; CPT free drugs; Ls174T cells; 96 h, CellTiter-Glo
Outline: as §2

[16] = system: breast cancer cells (MDA-MB-231); experiment: In vitro potency (CellTiter-Glo, 96 h), MDA-MB-231; type: cell-based; details: Homo sapiens, MDA-MB-231, 96 h, read-out: MDAMB231 IC50, Table 28; CPT free drugs; breast cancer cells MDA-MB-231; 96 h, CellTiter-Glo
Outline: as §1

[17] = read-out: IC50 786-O, camptothecin drugs, Table 13, CellTiter-Glo after 96 h exposure
[18] = read-out: IC50 BxPC3, camptothecin drugs, Table 13, CellTiter-Glo after 96 h exposure
[19] = read-out: IC50 L540cy, camptothecin drugs, Table 13, CellTiter-Glo after 96 h exposure
[20] = read-out: IC50 MOLM-13, camptothecin drugs, Table 13, CellTiter-Glo after 96 h exposure
[21] = read-out: IC50 SU-DHL-4, camptothecin drugs, Table 13, CellTiter-Glo after 96 h exposure
[22] = read-out: MOLM-13 IC50, Table 28, CPT free drugs, acute myeloid leukemia cells MOLM-13, 96 h, CellTiter-Glo

| Compound | IC50 [1, 17] [nM] | IC50 [2, 18] [nM] | IC50 [3, 19] [nM] | IC50 [4, 20] [nM] | IC50 [5, 21] [nM] | IC50 [6] [nM] | IC50 (U266 cells) [nM] | IC50 [7] [nM] | further results |
| --- | --- | --- | --- | --- | --- | --- | --- | --- | --- |
| CC[C@@]1(O)C(=O)OCc2c1cc1n(c2=O)Cc2c-1nc1cc3c(cc1c2CNc1cccc(N)c1)OCO3 [Compound 7ad] | 5 | 6 | 2 | 1 | 2 | 2 | 8 | 7 | – |
| neutrophil elastase | – | – | – | – | – | – | – | – | percentage of drug cleaved from the heavy chain (QToF mass spectrometry after 3 h at 37 C) [8]: percentage of drug cleaved from the heavy chain of non-targeted ADC 5 in vitro by neutrophil elastase is lower than that found for non-targeted ADC 37; percentage of drug cleaved from the heavy chain (QToF mass spectrometry after 3 h at 37 C) [9]: no proteolosis of h00-5 by neutrophil elastase was observed; percentage of drug cleaved from the heavy chain (QToF mass spectrometry after 3 h at 37 C) [10]: the h00-5 conjugate ... has its heavy chain cleaved by neutrophil elastase to a significantly lower extent than h00-7 |
| Cathepsin B | – | – | – | – | – | – | – | – | percentage of drug cleaved from the heavy chain (QToF mass spectrometry after 3 h at 37 C, pH 4.5) [8]: percentage of drug cleaved from the heavy chain of non-targeted ADCs 5 and 7 in vitro by Cathepsin B is similar to that found for non-targeted ADC 37; percentage of drug cleaved from the heavy chain (QToF mass spectrometry after 3 h at 37 C, pH 4.5) [9]: percentage of drug cleaved from the heavy chain of non-targeted ADCs 5 and 7 in vitro by Cathepsin B is similar to that found for non-targeted ADC 37; percentage of drug cleaved from the heavy chain (QToF mass spectrometry after 3 h at 37 C, pH 4.5) [10]: percentage of drug cleaved from the heavy chain of non-targeted ADCs 5 and 7 in vitro by Cathepsin B is similar to that found for non-targeted ADC 37 |
| CC[C@@]1(O)C(=O)OCc2c1cc1n(c2=O)Cc2c-1nc1cc3c(cc1c2CNc1ccc(N)cc1)OCO3 [Compound 7ab] | 1 | 1 | 0.4 | 0.3 | 0.4 | 0.4 | 2 | 1 | – |
| CC[C@@]1(O)C(=O)OCc2c1cc1n(c2=O)Cc2c-1nc1cc3c(cc1c2CNc1ccccc1N)OCO3 [Compound 7ac] | 2 | 5 | 2 | 1 | 1 | 2 | 8 | 4 | – |
| CC[C@@]1(O)C(=O)OCc2c1cc1n(c2=O)Cc2c-1nc1cc3c(cc1c2CN(C)CCCN)OCO3 [Compound 8, (5S)-14-[[3-aminopropyl(methyl)amino]methyl]-5-ethyl-S-hydroxy-7,18,20-trioxa-11,24-diazahexacyclo [11.11.0.02,11.04,9.015,23.017,21]tetracosa-1(13),2,4(9),14,16,21,23-heptaene-6,10-dione; 2,2,2-trifluoroacetic acid] | – | – | – | – | – | – | – | – | cytotoxicity compared with comparator dipeptide-based ADC (1) [11]: less cytotoxic; efficacy compared with comparator dipeptide-based ADC (1) [11]: similarly efficacious |
| CC[C@@]1(O)C(=O)OCc2c1cc1n(c2=O)Cc2c-1nc1cc3c(cc1c2CN)CC=C3 [Compound 5] | – | – | – | – | – | – | – | – | percentage of drug cleaved from the heavy chain by neutrophil elastase (neutrophil elastase): lower than that found for non-targeted ADC 37; IC50 [12]: 129 nM; IC50 [4, 22]: 258 nM |
| CC[C@@]1(O)C(=O)OCc2c1cc1n(c2=O)Cc2c-1nc1cc(F)c(C)c(C=C(C)C)c1c2CN [Compound 6, (S)-11-(aminomethyl)-4-ethyl-8-fluoro-4-hydroxy-9-methyl-10-(2-methylprop-1-en-1-yl)-1,12-dihydro-14H-pyrano[3′,4′:6,7]indolizino[1,2-b]quinoline-3,14(4H)-dione] | – | – | – | – | – | – | – | – | IC50 ([1]; read-out: 786-O IC50, Table 28, CPT free drugs, renal carcinoma cells 786-O, 96 h, CellTiter-Glo): 5 nM; IC50 (melanoma cells (A2058)): 5 nM; IC50 ([2]; read-out: BxPC3 IC50, Table 28, CPT free drugs, pancreatic cancer cells BxPC3, 96 h, CellTiter-Glo): 8 nM; IC50 [12]: 17 nM; IC50 [13]: 1 nM; IC50 [14]: 3 nM; IC50 [15]: 4 nM; IC50 ([3]; read-out: L540cy IC50, Table 28, CPT free drugs, Hodgkin's lymphoma cells L540cy, CellTiter-Glo): 4 nM; IC50 (Ls174T cells): 21 nM; IC50 [16]: 7 nM; IC50 [4, 22]: 4 nM; IC50 ([5]; read-out: SU-DHL-4 IC50, Table 28, CPT free drugs, B-lymphocyte cancer cells SU-DHL4, 96 h, CellTiter-Glo): 2 nM |

— patent US20240207427A1, “SELECTIVE DRUG RELEASE FROM INTERNALIZED CONJUGATES OF BIOLOGICALLY ACTIVE COMPOUNDS” (priority 2021, published 2024)
